# Source: patent US20190105367A1, “ANTIMICROBIAL 4-OXOQUINOLIZINES” (Emergent Product Development Gaithersburg Inc., priority 2011, published 2019)
# Like-named read-outs stand apart in the source and are kept apart here.
# Assays:
# A. baumannii ATCC 19606 [1] = test: MIC without and with sub-inhibitory polymyxin B (Example 4); assay type: cell-based, Acinetobacter baumannii; conditions: for MIC without PB/MIC + PB: A. baumannii ATCC 19606; for MIC: Acinetobacter baumannii
# A. baumannii ATCC 19606 [2] = test: Preliminary MBC without and with sub-inhibitory polymyxin B (Example 4); assay type: cell-based, Acinetobacter baumannii; conditions: Acinetobacter baumannii
# A. baumannii J2 [3] = test: MIC without and with sub-inhibitory polymyxin B (Example 4); assay type: cell-based, Acinetobacter baumannii; conditions: for MIC without PB/MIC + PB: A. baumannii J2; for MIC: Acinetobacter baumannii
# A. baumannii J2 [4] = test: Preliminary MBC without and with sub-inhibitory polymyxin B (Example 4); assay type: cell-based, Acinetobacter baumannii; conditions: Acinetobacter baumannii
# [5] = tested on: Acinetobacter sp. (H064200250); test: MIC without and with sub-inhibitory polymyxin B (Example 4); assay type: cell-based; conditions: for MIC: Acinetobacter
# [6] = tested on: Acinetobacter sp. (H064200250); test: Preliminary MBC without and with sub-inhibitory polymyxin B (Example 4); assay type: cell-based; conditions: Acinetobacter
# Outline: (§1)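 After plating, cultures are held at 37° C for 18-20 hours; the endpoint is then scored by comparing colony growth against the positive control, with MBC defined as the lowest concentration showing roughly 90% reduction.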
# A. baumannii A329 [7] = test: MIC without and with sub-inhibitory polymyxin B (Example 4); assay type: cell-based, Acinetobacter baumannii; conditions: +0.06 μg/ml PB, 2nd experiment
# A. baumannii A329 [8] = test: Preliminary MBC without and with sub-inhibitory polymyxin B (Example 4); assay type: cell-based, Acinetobacter baumannii; conditions: Acinetobacter baumannii, A329, A. baumannii A329, +0.06 μg/ml PB, 2nd experiment, read-out: MBC
# A. baumannii A387 = test: MIC without and with sub-inhibitory polymyxin B (Example 4); assay type: cell-based, Acinetobacter baumannii; conditions: for MIC without PB/MIC + PB: A. baumannii A387; for MIC: Acinetobacter baumannii
# A. baumannii A390 [9] = test: as above; assay type: cell-based, Acinetobacter baumannii; conditions: +0.06 μg/ml PB, 2nd experiment
# A. baumannii A14 [10] = test: Preliminary MBC without and with sub-inhibitory polymyxin B (Example 4); assay type: cell-based, Acinetobacter baumannii; conditions: 2nd experiment
# Outline: as §1
# A. baumannii A390 [11] = test: as above; assay type: cell-based, Acinetobacter baumannii; conditions: Acinetobacter baumannii, A390, A. baumannii A390, +0.06 μg/ml PB, 2nd experiment, read-out: MBC
# Outline: as §1
# A. baumannii A473 [12] = test: as above; assay type: cell-based, Acinetobacter baumannii; conditions: Acinetobacter baumannii, A473, A. baumannii A473, +0.06 μg/ml PB, 2nd experiment, read-out: MBC
# Outline: as §1
# A. baumannii NCTC 13301 [13] = test: as above; assay type: cell-based, Acinetobacter baumannii; conditions: Acinetobacter baumannii
# Outline: as §1
# A. baumannii A472 = test: as above; assay type: cell-based, Acinetobacter baumannii; conditions: Acinetobacter baumannii
# A. baumannii A473 [14] = test: MIC without and with sub-inhibitory polymyxin B (Example 4); assay type: cell-based, Acinetobacter baumannii; conditions: +0.06 μg/ml PB, 2nd experiment
# A. baumannii A489 [15] = test: as above; assay type: cell-based, Acinetobacter baumannii
# A. baumannii A489 [16] = test: Preliminary MBC without and with sub-inhibitory polymyxin B (Example 4); assay type: cell-based, Acinetobacter baumannii; conditions: Acinetobacter baumannii, preliminary MBC
# A. baumannii NCTC 13301 [17] = test: MIC without and with sub-inhibitory polymyxin B (Example 4); assay type: cell-based, Acinetobacter baumannii
# A. baumannii NCTC 13301 [18] = test: as above; assay type: cell-based, Acinetobacter baumannii; conditions: A. baumannii NCTC 13301; +[…] PB; 2nd experiment
# A. baumannii A14 [19] = test: as above; assay type: cell-based, Acinetobacter baumannii; conditions: 1st experiment
# A. baumannii A14 [20] = test: as above; assay type: cell-based, Acinetobacter baumannii; conditions: 2nd experiment
# A. baumannii A14 [21] = test: Preliminary MBC without and with sub-inhibitory polymyxin B (Example 4); assay type: cell-based, Acinetobacter baumannii; conditions: A. baumannii A14; +0.06 μg/ml polymyxin B; preliminary MBC; 1st experiment
# [22] = ratio, PB 0.06 μg/ml, 1st experiment
# [23] = A. baumannii A14, +0.06 μg/ml PB
# [24] = A. baumannii A489, +[…] PB, 2nd experiment
smiles,measurement,setting,value
"Cc1c(-c2ccc(CN)cc2)c(F)cn2c(=O)c(C(=O)O)cc(C3CC3)c12 [Compound 6, 8-(4-aminomethyl-phenyl)-1-cyclopropyl-7-fluoro-9-methyl-4-oxo-quinolizine-3-carboxylic acid]",MIC without PB/MIC + PB,"A. baumannii ATCC 19606 [1]; +0.06 μg/ml PB, 2nd experiment",4
same,MIC without PB/MIC + PB,A. baumannii ATCC 19606 [1]; [22],8
same,MIC,"A. baumannii ATCC 19606 [1]; ATCC19606, A. baumannii ATCC 19606, +0.06 μg/ml PB, 2nd experiment, read-out: MIC",0.06 µg/mL
same,MIC,"A. baumannii ATCC 19606 [1]; ATCC19606, read-out: MIC +0.06 μg/ml PB, A. baumannii ATCC 19606, +0.06 μg/ml polymyxin B, 1st experiment",0.06 µg/mL
same,MBC,"A. baumannii ATCC 19606 [2]; ATCC19606, A. baumannii ATCC 19606, +0.06 μg/ml PB, 2nd experiment, read-out: MBC",0.06 µg/mL
same,MBC,"A. baumannii ATCC 19606 [2]; ATCC19606, read-out: MBC +0.06 μg/ml PB, A. baumannii ATCC 19606, +0.06 μg/ml polymyxin B, 1st experiment",0.06 µg/mL
same,MIC without PB/MIC + PB,"A. baumannii J2 [3]; +[…] PB, 2nd experiment",32
same,MIC without PB/MIC + PB,"A. baumannii J2 [3]; ratio, PB […], 1st experiment",16
same,MIC,A. baumannii J2 [3]; J2,0.25 µg/mL
same,MIC,"A. baumannii J2 [3]; J2, read-out: MIC +[…] PB, A. baumannii J2, +[…] polymyxin B, 1st experiment",1 µg/mL
same,MBC,A. baumannii J2 [4]; J2,0.25 µg/mL
same,MBC,"A. baumannii J2 [4]; J2, read-out: MBC +[…] PB, A. baumannii J2, +[…] polymyxin B, preliminary MBC, 1st experiment",1 µg/mL
same,MIC,[5],2 µg/mL
same,MIC without PB/MIC + PB,"[5]; Acinetobacter spp. H064200250 (OXA51), +[…] PB, 2nd experiment",8
same,MIC without PB/MIC + PB,"[5]; Acinetobacter spp. H064200250, ratio, PB […], 1st experiment",2
same,MIC,"[5]; read-out: MIC +[…] PB, Acinetobacter spp. H064200250, +[…] polymyxin B, 1st experiment",4 µg/mL
same,MBC,[6],1 µg/mL
same,MBC,"[6]; read-out: MBC +[…] PB, Acinetobacter spp. H064200250, +[…] polymyxin B, preliminary MBC, 1st experiment",4 µg/mL
same,MIC without PB/MIC + PB,A. baumannii A329 [7]; A. baumannii A329,2
same,MIC,"A. baumannii A329 [7]; Acinetobacter baumannii, A329, A. baumannii A329, read-out: MIC",8 µg/mL
same,MBC,A. baumannii A329 [8],8 µg/mL
same,MIC without PB/MIC + PB,"A. baumannii A387; +0.06 μg/ml PB, 2nd experiment",4
same,MIC without PB/MIC + PB,A. baumannii A387; [22],8
same,MIC,"A. baumannii A387; A387, A. baumannii A387, +0.06 μg/ml PB, 2nd experiment, read-out: MIC",1 µg/mL
same,MIC,"A. baumannii A387; A387, read-out: MIC +0.06 μg/ml PB, A. baumannii A387, +0.06 μg/ml polymyxin B, 1st experiment",0.5 µg/mL
same,MIC without PB/MIC + PB,A. baumannii A390 [9]; A. baumannii A390,8
same,MIC,"A. baumannii A390 [9]; Acinetobacter baumannii, A390, A. baumannii A390, read-out: MIC",2 µg/mL
same,MBC,A. baumannii A14 [10]; [23],8 µg/mL
same,MBC,"A. baumannii A14 [10]; Acinetobacter baumannii, A14, A. baumannii A14, without PB, read-out: MBC",16 µg/mL
same,MBC,A. baumannii A390 [11],2 µg/mL
same,MBC,A. baumannii A473 [12],2 µg/mL
same,MBC,A. baumannii NCTC 13301 [13]; NCTC13301,2 µg/mL
same,MBC,"A. baumannii NCTC 13301 [13]; NCTC13301, read-out: MBC +[…] PB",4 µg/mL
same,MBC,A. baumannii A472; A472,1 µg/mL
same,MBC,"A. baumannii A472; A472, read-out: MBC +[…] PB, A. baumannii A472, +[…] polymyxin B, preliminary MBC, 1st experiment",0.5 µg/mL
same,MIC without PB/MIC + PB,A. baumannii A473 [14]; A. baumannii A473,4
same,MIC,"A. baumannii A473 [14]; Acinetobacter baumannii, A473, A. baumannii A473, read-out: MIC",2 µg/mL
same,MIC,A. baumannii A489 [15]; [24],0.5 µg/mL
same,MIC without PB/MIC + PB,A. baumannii A489 [15]; [24],8
same,MIC without PB/MIC + PB,"A. baumannii A489 [15]; A. baumannii A489, ratio, PB […], 1st experiment",16
same,MIC,"A. baumannii A489 [15]; Acinetobacter baumannii, A489, read-out: MIC +[…] PB, A. baumannii A489, +[…] polymyxin B, 1st experiment",0.5 µg/mL
same,MBC,"A. baumannii A489 [16]; A489, A. baumannii A489, +[…] PB, 2nd experiment, read-out: MBC",0.5 µg/mL
same,MBC,"A. baumannii A489 [16]; A489, read-out: MBC +[…] PB, A. baumannii A489, +[…] polymyxin B, 1st experiment",1 µg/mL
same,MIC without PB/MIC + PB,"A. baumannii NCTC 13301 [17]; A. baumannii NCTC 13301, ratio, PB […], 1st experiment",32
same,MIC,"A. baumannii NCTC 13301 [17]; Acinetobacter baumannii, NCTC13301, read-out: MIC +[…] PB",1 µg/mL
same,MIC without PB/MIC + PB,A. baumannii NCTC 13301 [18],16
same,MIC +0.06 μg/ml PB,A. baumannii A14 [19]; +0.06 μg/ml polymyxin B,8 µg/mL
same,MIC without PB/MIC + PB,"A. baumannii A14 [19]; ratio, PB 0.06 μg/ml",4
same,MIC,A. baumannii A14 [20]; [23],4 µg/mL
same,MIC without PB/MIC + PB,A. baumannii A14 [20]; [23],4
same,MIC,"A. baumannii A14 [20]; Acinetobacter baumannii, A14, A. baumannii A14, without PB, read-out: MIC",16 µg/mL
same,MBC +0.06 μg/ml PB,A. baumannii A14 [21],8 µg/mL
